These results are taken from ChEMBL document CHEMBL6092215, “A Prostate-Specific Membrane Antigen-Targeting Small Molecule-Drug Conjugate Strategy to Overcome the Hematological Toxicity of Olaparib” (J Med Chem, 2024).

Data set [1] can be described thus: Subacute toxicity in male ICR mouse assessed as decrease in WBC level at 100 mg/kg, po administered via gavage for 30 days by blood routine test relative to control. It counts as organism-based. Further details: scale not given: the % may be the effect or the level left. The note with it: in vivo, 720 h, time 30 day.
A short description of data set [2]: Subacute toxicity in male ICR mouse assessed as decrease in lymphocytes level at 100 mg/kg, po administered via gavage for 30 days by blood routine test relative to control. The note with it: in vivo, 720 h, time 30 day. Details: scale not given: the % may be the effect or the level left. It counts as organism-based.
Data set [3] can be described thus: Toxicity in male BALB/c nude mouse xenografted with human 22Rv1 cells assessed as decrease in body weight at 100 mg/kg administered via gavage. It counts as organism-based. The note with it: in vivo, po. A general note: In xenograft studies the graft and the host belong to different species.
A short description of data set [4]: Toxicity in male BALB/c nude mouse xenografted with human 22Rv1 cells assessed as decrease in hemoglobin at 100 mg/kg administered via gavage by routine blood test. The note with it: in vivo, po. Format: organism-based.
Data set [5] concerns CWR22R. Nature of the data set: Antiproliferative activity against human 22Rv1 cells with high PSMA expression assessed as effect on cell viability incubated for 72 hrs by MTT assay. The note with it: 22Rv1, 72 h. Format: functional, cell-based. In general terms: Formazan colour is commonly taken as a measure of viable cells.
Data set [6] in a line: Subacute toxicity in male ICR mouse assessed as decrease in hematocrit level at 100 mg/kg, po administered via gavage for 30 days by blood routine test relative to control. It counts as organism-based. Details: scale not given: the % may be the effect or the level left. The note with it: in vivo, 720 h, time 30 day.
Data set [7] can be described thus: Toxicity in male BALB/c nude mouse xenografted with human 22Rv1 cells assessed as decrease in granulocytes at 100 mg/kg administered via gavage by routine blood test. Format: organism-based. The note with it: in vivo, po.
The nature of data set [8]: Subacute toxicity in male ICR mouse assessed as decrease in neutrophil level at 100 mg/kg, po administered via gavage for 30 days by blood routine test relative to control. It counts as organism-based. Further details: scale not given: the % may be the effect or the level left. The note with it: in vivo, 720 h, time 30 day.
The subject of another data set is PC-3. Kind of data set: Antiproliferative activity against PSMA negative human PC-3 cells assessed as effect on cell viability incubated for 72 hrs by MTT assay. It counts as functional.
In data set [9] the test system is CWR22R. Nature of the data set: Antitumor activity against human 22Rv1 cells xenografted in male BALB/c nude mouse assessed as tumor growth inhibition at 100 mg/kg administered via gavage relative to control. It counts as functional. The note with it: 22Rv1, po, read-out: TGI.
The nature of data set [10]: Subacute toxicity in male ICR mouse assessed as decrease in red blood cells at 100 mg/kg, po administered via gavage for 30 days by blood routine test relative to control. It counts as organism-based. Details: scale not given: the % may be the effect or the level left. The note with it: in vivo, 720 h, time 30 day.
Data set [11] relates to CWR22R. Nature of the data set: Induction of DNA damage in human 22Rv1 cells assessed as increase in number of gamma-H2AX foci at 100 uM incubated for 12 hrs by DAPI staining based immunofluorescence analysis. It counts as functional, cell-based.
Data set [12] in a line: Antiproliferative activity against PSMA negative human RWPE-1 cells assessed as effect on cell viability incubated for 72 hrs by MTT assay. The note with it: RWPE-1 cells (PSMA negative). It counts as toxicity, cell-based.
The test system of data set [13] is CWR22R. Nature of the data set: Antitumor activity against human 22Rv1 cells xenografted in male BALB/c nude mouse at 100 mg/kg administered via gavage. Format: functional, organism-based.
Data set [14] can be described thus: Toxicity in male BALB/c nude mouse xenografted with human 22Rv1 cells assessed as decrease in lymphocytes at 100 mg/kg administered via gavage by routine blood test. Format: organism-based. The note with it: in vivo, po.
Data set [15] concerns CWR22R. Nature of the data set: Antiproliferative activity against human 22Rv1 cells assessed as reduction in cell viability at 125 uM in presence of DUPA. It counts as functional, cell-based.
The next data set concerns LNCaP. Kind of data set: Antiproliferative activity against human LNCaP cells with high PSMA expression assessed as effect on cell viability incubated for 72 hrs by MTT assay. It counts as functional, cell-based.
Data set [16] in a line: Toxicity in male BALB/c nude mouse xenografted with human 22Rv1 cells assessed as decrease in red blood cells at 100 mg/kg administered via gavage by routine blood test. It counts as organism-based. The note with it: in vivo, po.
Data set [17] is described as follows: Drug uptake in PSMA negative human PC-3 cells at 10 uM measured after 1 to 6 hrs by LC-MS/MS analysis. The note with it: pc-3, 10 µM, time 1-6 hrs. It counts as ADME, cell-based.
Data set [18] in a line: Drug uptake in PSMA positive human 22Rv1 cells at 10 uM measured after 1 to 6 hrs by LC-MS/MS analysis. It counts as ADME, cell-based. The note with it: cwr22r, time 1-6 hrs.
Data set [19] in a line: Subacute toxicity in male ICR mouse assessed as decrease in hemoglobin level at 100 mg/kg, po administered via gavage for 30 days by blood routine test relative to control. It counts as organism-based. Further details: scale not given: the % may be the effect or the level left. The note with it: in vivo, 720 h, time 30 day.
The nature of data set [20]: Subacute toxicity in male ICR mouse assessed as decrease in body weight at 100 mg/kg, po administered via gavage for 30 days relative to control. Format: organism-based. The note with it: in vivo, 720 h, time 30 day. Details: scale not given: the % may be the effect or the level left.

For orientation: IC50 means the midpoint of a concentration-inhibition curve. Usually CC50 stands for the concentration that lowers cell viability or growth by half.

Activity calls are given as the source filed them. The rule behind the calls is not given here.

Turning to `O=C(c1cc(Cc2n[nH]c(=O)c3ccccc23)ccc1F)N1CCN(C(=O)C2CC2)CC1` [OLAPARIB], the Activity in data set [1] is given as 28.12%; in data set [2], 32.71%; in [3], “Non-toxic”; in [4], “Toxic”; in data set [6] it was 12.82%; in data set [7], “Toxic”. Besides, the Activity is 10.4% in data set [8]; 15.73% in data set [10]; “Toxic” in [14]; “Active; Drug Mode Of Action Appears To Be Independent Of Binding To Psma Receptor” in the data set with CWR22R [15]; “Toxic” in data set [16]; 11.69% in [19]. Also, the Activity in data set [20] was found to be 8%. In addition, the IC50 with CWR22R [5] was 61.6 µM; in the data set on LNCaP, 56.5 µM. Also, in the data set on PC-3, the CC50 worked out at 91.5 µM. In addition, in the data set with CWR22R [9], the inhibition in vivo at 100 mg/kg came to 61%. In addition, the result with CWR22R [11] and in the data set with CWR22R [13] was Active. In [12], the CC50 at 72 h came out at 85.5 µM. Also, the Drug uptake result in data set [17] and in [18] was “Active” each time.
